Test results from US9890166B2, “Imidazopyrrolidine derivatives and their use in the treatment of disease” (NOVARTIS AG, priority 2013, dated 2018).

Columns and labels:
BRD2 (His-Brd2(60-472)) = BRD2 (His-Brd2(60-472)) (Homo sapiens (Human), UniProt P25440); assay: TR-FRET in-vitro binding assay for BRD2; details: single determination or n ≧ 2 independent determinations, read-out: Biochemical IC50 BRD2
Protocol: (§1) TR-FRET In-Vitro Binding Assays for BRD2, BRD3, and BRD4:
(§2) All assays were performed in 384 well microtiter plates. Each assay plate contained 8-point serial dilutions for 40 test compounds, plus 16 high- and 16 low controls. Liquid handling and incubation steps were done on an Innovadyne Nanodrop Express equipped with a robotic arm (Thermo CatX, Perkin Elmer/Caliper Twister II) and an incubator (Liconic STX40, Thermo Cytomat 2C450). The assay plates were prepared by addition of 50 nl per well of compound solution in 90% DMSO HummingBird nanodispenser (Zinsser Analytic). […] Reactions were incubated at 30° C. for 35 minutes. […] After 35 minutes incubation at 30° C., plates were measured in a Perkin Elmer EnVision multilabel reader.
(§3) Preparation of Compound Dilutions
(§4) Test compounds were dissolved in DMSO (10 mM) and transferred into 1.4 mL flat bottom or V-shaped Matrix tubes carrying a unique 2D matrix. The stock solutions were stored at […] if not used immediately. For the test procedure the vials were defrosted and identified by a scanner whereby a working sheet was generated that guided the subsequent working steps.
(§5) Compound dilutions were made in 96 well plates. This format enabled the assay of maximally 40 individual test compounds at 8 concentrations (single points) including 4 reference compounds, if desired (known BET inhibitors from the prior art, for this and other assays of the type disclosed herein). The dilution protocol included the production of “pre-dilution plates”, “master plates” and “assay plates”.
(§6) Pre-Dilution Plates: 96 polypropylene well plates were used as pre-dilution plates. A total of 4 pre-dilution plates were prepared including 10 test compounds each on the plate positions A1-A10, one standard compound at A11 and one DMSO control at A12. All dilution steps were done on a HamiltonSTAR robot.
(§7) These plates were used directly for the assay which was performed in a total volume of 13.55 μL.

BRD4 (His-Brd4(44-477)) = BRD4 (His-Brd4(44-477)) (Homo sapiens (Human), UniProt O60885); assay: TR-FRET in-vitro binding assay for BRD4; details: single determination or n ≧ 2 independent determinations, read-out: Biochemical IC50 BRD4
Protocol: as §1, §2, §3, §4, §5, §6, §7

K-562 cells = assay: Cell growth inhibition assay (CellTiter-Glo), K-562; details: for GI50: Homo sapiens, K562, read-out: K-562 GI50; for K-562 TGI: K-562 cells, total growth inhibition, CellTiter-Glo;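 on all read-outs here: cellular ATP measured by luminescence after 4 days of exposure, 3-fold dilution series from 10 µM, DMSO vehicle-treated cells define 100%, cell-free medium wells −100%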
MV-4-11 cells = assay: Cell growth inhibition assay (CellTiter-Glo), MV-4-11; details: for GI50: Homo sapiens, MV4-11, read-out: MV-4-11 GI50; for MV-4-11 TGI: MV-4-11 cells, total growth inhibition, CellTiter-Glo;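 on all read-outs here: cellular ATP luminescence after 4 days, 3-fold dilution series from 10 µM top dose, vehicle (0.1% DMSO) set to 100%, cell-free medium set to −100%, day 0 corrected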
BRD3 (His-Brd3(20-477)) = BRD3 (His-Brd3(20-477)) (Homo sapiens (Human), UniProt Q15059); assay: TR-FRET in-vitro binding assay for BRD3; details: single determination or n ≧ 2 independent determinations, read-out: Biochemical IC50 BRD3
Protocol: as §1, §2, §3, §4, §5, §6, §7

THP-1 cells = assay: Cell growth inhibition assay (CellTiter-Glo), THP-1; details: for GI50: Homo sapiens, THP-1, read-out: THP-1 GI50; for THP-1 TGI: THP-1 cells, total growth inhibition, CellTiter-Glo;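 on all read-outs here: viability read as cellular ATP luminescence after 4 days, 3-fold dilution series from 10 µM, DMSO vehicle-treated cells taken as 100%, cell-free medium wells as −100%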
[1] = molecular target: CREBBP bromodomain (His-CREBBP(1081-1197)) (Homo sapiens (Human), UniProt Q92793); assay: AlphaScreen in-vitro binding assay for CREBBP; details: single determination or n ≧ 2 independent determinations, read-out: Biochemical IC50 CREBBP
Protocol: AlphaScreen In-Vitro Binding Assay for CREBBP
In order to assess bromodomain selectivity, we set up a binding assay using the bromodomain encoded by the CREBBP gene. […] Reactions were incubated at 30° C. for 35 minutes. Subsequently 4.5 μl per well detection mix (50 mM HEPES, pH 7.5, 0.005% Tween20, 0.02% BSA, 150 mM NaCl, 45 μg/ml Ni-chelate acceptor beads, 45 μg/mIstreptavidin-donor beads) (Perkin Elmer)) were added. After 60 minutes incubation at room temperature, plates were measured in a Perkin Elmer EnVision multilabel reader. IC50 values were determined from percent inhibition values at different compound concentrations by non-linear regression analysis.
as §3, §4, §5, §6, §7

Sequence of BRD2 (His-Brd2(60-472)) (P25440 60-472): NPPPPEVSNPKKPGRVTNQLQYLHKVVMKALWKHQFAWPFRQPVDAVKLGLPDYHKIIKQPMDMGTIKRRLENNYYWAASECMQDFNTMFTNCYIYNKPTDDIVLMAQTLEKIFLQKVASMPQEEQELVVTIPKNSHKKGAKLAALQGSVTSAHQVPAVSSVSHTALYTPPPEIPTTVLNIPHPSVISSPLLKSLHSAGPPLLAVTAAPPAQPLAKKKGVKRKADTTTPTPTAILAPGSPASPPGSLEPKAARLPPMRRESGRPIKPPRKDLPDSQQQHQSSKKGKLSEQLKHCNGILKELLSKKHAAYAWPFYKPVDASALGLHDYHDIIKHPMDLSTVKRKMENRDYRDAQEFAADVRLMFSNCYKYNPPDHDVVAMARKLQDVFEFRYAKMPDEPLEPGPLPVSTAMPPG
Sequence of CREBBP bromodomain (His-CREBBP(1081-1197)) (Q92793 1081-1197): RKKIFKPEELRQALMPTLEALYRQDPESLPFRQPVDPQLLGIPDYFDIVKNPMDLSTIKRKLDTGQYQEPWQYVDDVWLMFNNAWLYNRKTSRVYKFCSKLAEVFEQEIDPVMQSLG
Sequence of BRD3 (His-Brd3(20-477)) (Q15059 20-477): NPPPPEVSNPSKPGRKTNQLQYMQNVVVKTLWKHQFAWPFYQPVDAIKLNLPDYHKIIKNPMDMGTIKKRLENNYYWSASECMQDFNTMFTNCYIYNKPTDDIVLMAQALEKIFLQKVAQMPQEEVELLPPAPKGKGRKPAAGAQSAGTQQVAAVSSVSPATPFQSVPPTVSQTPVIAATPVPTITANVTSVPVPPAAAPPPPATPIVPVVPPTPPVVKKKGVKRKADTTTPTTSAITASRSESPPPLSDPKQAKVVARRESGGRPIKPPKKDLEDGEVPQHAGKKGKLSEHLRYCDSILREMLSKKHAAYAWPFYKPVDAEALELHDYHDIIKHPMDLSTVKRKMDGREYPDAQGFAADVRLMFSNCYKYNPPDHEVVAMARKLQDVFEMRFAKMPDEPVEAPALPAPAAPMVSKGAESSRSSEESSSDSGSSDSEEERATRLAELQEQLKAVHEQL

Row | Structure (SMILES) | IC50 (BRD2 (His-Brd2(60-472))) | IC50 (BRD4 (His-Brd4(44-477))) | GI50 (K-562 cells) | K-562 TGI (K-562 cells) | GI50 (MV-4-11 cells) | MV-4-11 TGI (MV-4-11 cells) | IC50 (BRD3 (His-Brd3(20-477))) | GI50 (THP-1 cells) | THP-1 TGI (THP-1 cells) | IC50 [1]
1 | COc1ncccc1-c1nc2c(n1C(C)C)C(c1ccc(Cl)cc1)N(c1cc(C)c3nnn(C)c3c1)C2=O (racemic) [Example 77, 6-(4-chlorophenyl)-5-(1,4-dimethyl-1H-benzo[d][1,2,3]triazol-6-yl)-1-isopropyl-2-(2-methoxypyridin-3-yl)-5,6-dihydropyrrolo[3,4-d]imidazol-4(1H)-one] | 52 nM | < 24 nM | 21.5 nM | >10000 nM | 4.93 nM | 9.36 nM | 39 nM | 7.94 nM | 21.7 nM | –
2 | Cc1cc(N2C(=O)c3nc(-c4nccs4)n(C(C)C)c3C2c2ccc(Cl)cc2)cn(C)c1=O (stereo not drawn) [Example 23, 6-(4-chlorophenyl)-5-(1,5-dimethyl-6-oxo-1,6-dihydropyridin-3-yl)-1-isopropyl-2-(thiazol-2-yl)-5,6-dihydropyrrolo[3,4-d]imidazol-4(1H)-one] | 55 nM | 52 nM | 381 nM | >10000 nM | 87.5 nM | 143 nM | 68 nM | 158 nM | 311 nM | –
3 | Cc1nc(C)c(-c2nc3c(n2C(C)C)C(c2ccc(Cl)cc2)N(c2cc(C)c(=O)n(C)c2)C3=O)s1 (stereo not drawn) [Example 25, 6-(4-chlorophenyl)-5-(1,5-dimethyl-6-oxo-1,6-dihydropyridin-3-yl)-2-(2,4-dimethylthiazol-5-yl)-1-isopropyl-5,6-dihydropyrrolo[3,4-d]imidazol-4(1H)-one] | 120 nM | 99 nM | 528 nM | >10000 nM | 65.7 nM | 90.4 nM | 79 nM | 118 nM | 209 nM | –
4 | Cc1cc(N2C(=O)c3nc(-c4cccnc4F)n(C)c3C2c2ccc(Cl)cc2)cn(C)c1=O (stereo not drawn) [Example 32, 6-(4-chlorophenyl)-5-(1,5-dimethyl-6-oxo-1,6-dihydropyridin-3-yl)-2-(2-fluoropyridin-3-yl)-1-methyl-5,6-dihydropyrrolo[3,4-d]imidazol-4(1H)-one] | 180 nM | 170 nM | – | – | – | – | 130 nM | – | – | –
5 | Cc1cc(N2C(=O)c3nc(C4=CCOCC4)[nH]c3[C@H]2c2ccc(Cl)cc2)cn(C)c1=O [Example 152, (R)-6-(4-chlorophenyl)-2-(3,6-dihydro-2H-pyran-4-yl)-5-(1,5-dimethyl-6-oxo-1,6-dihydropyridin-3-yl)-5,6-dihydropyrrolo[3,4-d]imidazol-4(1H)-one] | – | 25 nM | 244 nM | >10000 nM | 34.4 nM | 57.3 nM | 22.5 nM | 62.7 nM | 135.5 nM | 525 nM
6 | Cc1cc(N2C(=O)c3nc(C4=CCOCC4)n(C(C)C)c3C2c2ccc(Cl)cc2)nc2c1nnn2C (stereo not drawn) [Example 160, 6-(4-chlorophenyl)-2-(3,6-dihydro-2H-pyran-4-yl)-5-(3,7-dimethyl-3H-[1,2,3]triazolo[4,5-b]pyridin-5-yl)-1-isopropyl-5,6-dihydropyrrolo[3,4-d]imidazol-4(1H)-one] | – | < 11 nM | 25.8 nM | >7000 nM | 5.95 nM | 4.973 nM | < 11 nM | 4.6 nM | 6.383 nM | > 37000 nM
7 | Cc1cc(N2C(=O)c3nc(C4=CCOCC4)[nH]c3C2c2ccc(Cl)cc2)nc2c1nnn2C (stereo not drawn) [Example 162, 6-(4-chlorophenyl)-2-(3,6-dihydro-2H-pyran-4-yl)-5-(3,7-dimethyl-3H-[1,2,3]triazolo[4,5-b]pyridin-5-yl)-5,6-dihydropyrrolo[3,4-d]imidazol-4(1H)-one] | – | 11.5 nM | 41 nM | >7000 nM | 4.37 nM | 11.12 nM | 13 nM | 5.03 nM | 10.54 nM | > 37000 nM
8 | COc1ncccc1-c1nc2c([nH]1)C(c1ccc(Cl)cc1)N(c1cc(C)c3nnn(C)c3n1)C2=O (stereo not drawn) [Example 163, 6-(4-chlorophenyl)-5-(3,7-dimethyl-3H-[1,2,3]triazolo[4,5-b]pyridin-5-yl)-2-(2-methoxypyridin-3-yl)-5,6-dihydropyrrolo[3,4-d]imidazol-4(1H)-one] | – | 13 nM | 53.3 nM | >10000 nM | 15.5 nM | 29.05 nM | 16 nM | 15.8 nM | 25.75 nM | > 37000 nM
9 | Cc1cc(N2C(=O)c3nc(C4=CCOCC4)n(C(C)C)c3[C@H]2c2ccc(Cl)cc2)nc2c1nnn2C [Example 164, (R)-6-(4-chlorophenyl)-2-(3,6-dihydro-2H-pyran-4-yl)-5-(3,7-dimethyl-3H-[1,2,3]triazolo[4,5-b]pyridin-5-yl)-1-isopropyl-5,6-dihydropyrrolo[3,4-d]imidazol-4(1H)-one] | – | < 11 nM | 13.2 nM | >10000 nM | 0.887 nM | 1.83 nM | < 11 nM | 1.12 nM | 2.43 nM | 11200 nM
10 | Cc1cc(N2C(=O)c3nc(C4=CCOCC4)[nH]c3[C@H]2c2ccc(Cl)cc2)nc2c1nnn2C [Example 165, (R)-6-(4-chlorophenyl)-2-(3,6-dihydro-2H-pyran-4-yl)-5-(3,7-dimethyl-3H-[1,2,3]triazolo[4,5-b]pyridin-5-yl)-5,6-dihydropyrrolo[3,4-d]imidazol-4(1H)-one] | – | 19 nM | 47.9 nM | >10000 nM | 4.12 nM | 12.74 nM | 18 nM | 4 nM | 15.67 nM | 14800 nM
11 | COc1ncccc1-c1nc2c([nH]1)[C@@H](c1ccc(Cl)cc1)N(c1cc(C)c3nnn(C)c3n1)C2=O [Example 166, (R)-6-(4-chlorophenyl)-5-(3,7-dimethyl-3H-[1,2,3]triazolo[4,5-b]pyridin-5-yl)-2-(2-methoxypyridin-3-yl)-5,6-dihydropyrrolo[3,4-d]imidazol-4(1H)-one] | – | 13 nM | 84.6 nM | >10000 nM | 5.42 nM | 8.15 nM | 12 nM | 7.54 nM | 11.28 nM | 33100 nM
12 | Cc1cc(N2C(=O)c3nc(C4CCOC4)n(C(C)C)c3[C@H]2c2ccc(Cl)cc2)cc2c1nnn2C (stereo partly drawn) [Example 172, (6R)-6-(4-chlorophenyl)-5-(1,4-dimethyl-1H-benzo[d][1,2,3]triazol-6-yl)-1-isopropyl-2-(tetrahydrofuran-3-yl)-5,6-dihydropyrrolo[3,4-d]imidazol-4(1H)-one] | – | 13 nM | 19.6 nM | >10000 nM | 5.22 nM | 10.33 nM | 17 nM | 6.28 nM | 12.26 nM | 980 nM
